From ChEMBL document CHEMBL1667833, “Potent radiosensitizing agents: 5-methylselenyl- and 5-phenylselenyl-methyl-2'-deoxyuridine” (Bioorg Med Chem Lett, 2011)

Columns and labels:
NCI-H460 [1] = assay: Cytotoxicity against human H460 cells assessed as cell viability after 72 hrs by calorimetric assay; assay type: functional, cell-based; details: NCI-H460, 72 h
NCI-H460 [2] = assay: Potentiation of gamma-irradiation-induced cytotoxicity against human H460 cells assessed as dose enhancement ratio at 300 uM administered 24 hrs before 2-8 Gy irradiation measured after 12 days; assay type: functional
NCI-H460 [3] = assay: Potentiation of gamma-irradiation-induced cytotoxicity against human H460 cells assessed as dose enhancement ratio at 50 uM administered 24 hrs before 2-8 Gy irradiation measured after 12 days; assay type: functional

Structure (SMILES)	IC50 (NCI-H460 [1]) [µM]	Ratio (NCI-H460 [2])	Ratio (NCI-H460 [3])
O=c1[nH]c(=O)n([C@H]2C[C@H](O)[C@@H](CO)O2)cc1C[Se]c1ccccc1	500	1.12	–
C[Se]Cc1cn([C@H]2C[C@H](O)[C@@H](CO)O2)c(=O)[nH]c1=O	100	–	1.2
